Structures can show the parent of a compound that is named as a salt.
Tests used:
Assay type in all cases: in vivo
[1] = tested on: glyphosate-resistant Amaranthus palmeri in which the number of copies of EPSPS gene had been increased; assay: Foliar spray pot test in greenhouse, herbicidal effect (Example 29); details: foliar spray 200 L/ha at 18 days, rated 14 days after treatment, rating 0 to 100
Description: (§1) In a plastic pot filled with soli were seeded glyphosate-resistant Amaranthus palmeri in which the number of copies of EPSPS gene had been increased (produced by Azlin Seed Service) and glyphosate-sensitive Amaranthus palmeri (produced by Azlin Seed Service). The weeds were cultivated in a greenhouse for 18 days, and then an aqueous spray liquid [i.e., a liquid prepared by diluting a predetermined amount of a trifludimoxazin formulation (i.e., an emulsifiable concentrate prepared by mixing 20 parts of trifludimoxazin with 80 parts of a liquid cocktail (i.e., a mixture of 5 parts of cyclohexanone and 1 part of SORPOL 2680X (manufactured by TOHO Chemical Industry Co., Ltd.))) with water containing a spreading agent] was sprayed uniformly from above the weeds at the amount of 200 L/ha using a sprayer. Subsequently, the weeds were allowed to grow in a greenhouse for 14 days, and then the herbicidal effect was examined. As a reference example, the same procedure was carried out, except that the trifludimoxazin formulation was replaced with a predetermined amount of a glyphosate formulation (i.e., a soluble liquid containing 660 g/L of glyphosate potassium salt: “ROUNDUP MAXLOAD” (manufactured by Nissan Chemical Corporation). The results are shown in the table 1.

[2] = tested on: glyphosate-sensitive Amaranthus palmeri; assay: as above; details: foliar spray 200 L/ha at 18 days, rated 14 days after treatment, rating 0 to 100
Description: as §1

[3] = tested on: glyphosate-resistant weeds (Amaranthus palmeri, waterhemp, kochia, marestail, Guernsey fleabane, fleabane, goosegrass, darnel, volunteer glyphosate-tolerant …); assay: Soil treatment pot test on day of seeding (Example 1); details: soil treatment at 6.25, 12.5, 25, 50, 100 or 150 g/ha; 200 L/ha; twenty-eight days after the treatment
Description: (§2) In a plastic pot filled with soil are seeded glyphosate-resistant Amaranthus palmeri in which the number of copies of EPSPS gene has been increased, glyphosate-resistant waterhemp in which the number of copies of EPSPS gene has been increased, glyphosate-resistant kochia in which the number of copies of EPSPS gene has been increased, marestail which is resistant to glyphosate by involving an ABC transporter, Guernsey fleabane which is resistant to glyphosate by involving an ABC transporter, fleabane which is resistant to glyphosate by involving an ABC transporter, glyphosate-resistant goosegrass having Thr102Ile, glyphosate-resistant goosegrass having Pro106Ser, glyphosate-resistant goosegrass having Pro106Ala, glyphosate-resistant goosegrass having Pro106Leu, glyphosate-resistant goosegrass having Thr102Ile and Pro106Ser, glyphosate-resistant darnel having Thr102Ile, glyphosate-resistant darnel having Pro106Ser, glyphosate-resistant darnel having Pro106Ala, glyphosate-resistant darnel having Pro106Leu, volunteer glyphosate-tolerant soybean, and volunteer glyphosate-tolerant cotton. On the same day, the soil is treated with trifludimoxazin at the application rate of 6.25, 12.5, 25, 50, 100 or 150 g/ha. The amount of a liquid sprayed is 200 L/ha. Subsequently, the plants are cultivated in a greenhouse.

[4] = tested on: glyphosate-resistant weeds (Amaranthus palmeri, waterhemp, kochia, marestail, Guernsey fleabane, fleabane, goosegrass, darnel, volunteer glyphosate-tolerant …); assay: Foliar treatment pot test 21 days after seeding (Example 2); details: foliage application at 6.25, 12.5, 25, 50, 100 or 150 g/ha; 200 L/ha; fourteen days after the treatment
Description: as §2, with “The plants are cultivated in a greenhouse for 21 days, and then trifludimoxazin is applied to foliage of” for “On”, “plants” for “same day, the soil is treated with trifludimoxazin”, “at” for “at the”

SMILES	Effect on glyphosate-resistant Amaranthus palmeri ([1]; application rate 1540 g/ha)	Effect on glyphosate-resistant Amaranthus palmeri ([1]; application rate 6160 g/ha)	Effect on glyphosate-sensitive Amaranthus palmeri ([2]; application rate 385 g/ha)	Effect on glyphosate-sensitive Amaranthus palmeri ([2]; application rate 1540 g/ha)	Effect on glyphosate-resistant Amaranthus palmeri ([1]; application rate 6.25 g/ha)	Effect on glyphosate-resistant Amaranthus palmeri ([1]; application rate 12.5 g/ha)	Effect on glyphosate-resistant Amaranthus palmeri ([1]; application rate 25 g/ha)	Effect on glyphosate-sensitive Amaranthus palmeri ([2]; application rate 6.25 g/ha)	Effect on glyphosate-sensitive Amaranthus palmeri ([2]; application rate 12.5 g/ha)	Effect on glyphosate-sensitive Amaranthus palmeri ([2]; application rate 25 g/ha)	effect against the weeds [3]	effect against the weeds [4]
O=C(O)CNCP(=O)(O)O [Glyphosate potassium salt, glyphosate potassium salt]	20	70	100	100								
C#CCN1C(=O)C(F)(F)Oc2cc(F)c(-n3c(=O)n(C)c(=S)n(C)c3=O)cc21 [Trifludimoxazin, trifludimoxazin]					100	100	100	65	70	80	significant effect	significant effect
